Source: ChEMBL document CHEMBL4673312, “Optimization of piperidine constructed peptidyl derivatives as proteasome inhibitors” (Bioorg Med Chem, 2021)

Test: in vitro
Settings: rat, plasma

Row | Compound | half-life at 2 µM
1 | CC(C)(C)CNC(=O)C[C@H](NC(=O)N1CCC(NC(=O)c2ccc(F)cc2)CC1)C(=O)N[C@@H](CCc1ccccc1)C(=O)NCc1ccccc1Cl | 1.53 h
2 | CC(C)(C)CNC(=O)C[C@H](NC(=O)[C@H](CC(=O)NCC(C)(C)C)NC(=O)N1CCC(C(=O)Nc2cccnc2)CC1)C(=O)NCc1ccccc1Cl | 1.2 h
